According to article PMC6058575, “Enhanced anti-hepatocarcinoma efficacy by GLUT1 targeting and cellular microenvironment-responsive PAMAM–camptothecin conjugate” (Drug Delivery, 2017):
Where two headings read alike, the source gives them in different places.

Assays:
H22 tumor-bearing mice [1] = experiment: In vivo and ex vivo imaging of tumor targeting; details: in vivo imaging, 1 mg/kg CPT i.v.
Procedure: (§1) An H22 tumor-bearing mice model was established based on previously reported method (Li et al., [2014]). Ascitic fluid containing H22 cells was extracted and diluted with PBS (pH 7.0) to 1 × 10^7 cells/ml. The mice (20–22 g) were anesthetized with 5% chloral hydrate and subcutaneously injected with 0.2 ml of cell suspension for armpit tumor implantation. All animal studies were approved by the China Animal Care and Use Committee and carried out according to the Guide for the Care and Use of Laboratory Animals of Beijing University of Chinese Medicine.
Mice were intravenously injected with conjugates at 1 mg/kg CPT concentration. […] Afterward, the tumor-bearing mice were immediately sacrificed by carbon dioxide asphyxiation. Subsequently, major organs (such as tumor, liver, spleen, brain, heart, kidney, and lung) were harvested and visualized.

HepG2 MCTS = experiment: Uptake in multicellular tumor spheroids (MCTS), CLSM; format: cell-based; details: 1 μM, 8 h, 100 µm depth
Procedure: Besides that, a multicellular tumor spheroids (MCTS) model, which was more suitable for mimicking the tumor microenvionment, was also employed as a supplement to monolayer cell model for better estimating in vitro targeting efficacy (Kunz-Schughart, [1999]). MCTS model was established by the liquid overlay method as described before (Friedrich et al., [2008]). Briefly, HepG2 cells were seeded in 96-well plates coated with 2% agarose at 2 × 10^3 cells per well and incubated for 5 d. […] Thereafter, MCTS were collected by centrifugation, washed with PBS, and observed by confocal laser scanning microscope (CLSM) (Olympus FV1000, Tokyo, Japan) at 100 µm depth of the MCTS (about the middle section of the sphere).

HepG2 cells [2] = experiment: Subcellular localization by CLSM; format: cell-based; details: 1 μM CPT, 4 h
Procedure: HepG2 and L02 cells were seeded on cover glasses embedded in 24-well culture plates at densities of 5 × 10^4 cells/well. After 24 h, conjugates were added at a 1 μM CPT concentration and co-incubated with the cells for 4 h at 37 °C. Then, after the conjugate solutions were removed, the cells were treated with 50 nM MitoTracker deep red for 30 min and 10 mM Basic Orange 14 for 10 min to stain mitochondria and nuclei, respectively (Paleos et al., [2016]). Then, the cells were fixed with 4% paraformaldehyde, washed three times with ice-cold PBS (pH 7.4), and visualized using CLSM.

HepG2 cells [3] = experiment: Cell-cycle analysis by flow cytometry (PI); format: cell-based; details: 1 μM CPT, 24 h, control cells 21.30%
Procedure: The cell-cycle percentage of HepG2 was analyzed using flow cytometer. […] After 24 h, the cells were trypsinized, washed with PBS, and fixed with 4 °C pre-cooling 70% ethanol overnight at −20 °C. […] Finally, the cells were stained with propidium iodide (PI) solution for 20 min and determined by flow cytometer.

[4] = Pharmacokinetic study after intravenous administration; format: in vivo; details: rats; for maximum plasma drug concentration: 1.5 mg/kg CPT i.v., 5 min post administration
Procedure: The rats were fasted for 12 h with free access to water before the experiment. Briefly, 0.5 ml of blood was collected in centrifuge tubes at predefined times of 0.083, 0.33, 0.5, 1, 2, 4, 8, 12, and 24 h. Blood samples were centrifuged at 15,000 rpm for 15 min at 4 °C to isolate plasma fractions. Then, 100 μL of methanol was added to the plasma, and the mixture was extracted with 2 mL hexane and 1 mL dichloromethane. The mixture was vortexed for 10 min and centrifuged at 15,000 rpm for 15 min, and the supernatant was collected and dried using a stream of nitrogen gas. The resultant residue was redissolved in 200 μL methanol and stored at −20 °C until further analysis.

[5] = In vitro CPT release by dialysis in PBS with GSH; format: physicochemical; details: compared with MPCC and GPCC
Procedure: A dialysis method was used to determine the in vitro CPT release of conjugates. Conjugates at concentrations of 1 mg/ml were placed in dialysis bags (MWCO 3500 Da) and immersed in 50 ml PBS (pH 7.4) containing different concentrations of GSH (0 μM, 10 μM and 10 mM) to mimic various cellular microenvironment conditions. The drug release was conducted at 100 rpm and 37 °C. During dialysis, 1 ml aliquots were withdrawn from the release medium at predefined intervals, and 1 ml of fresh release medium was added to maintain a constant total volume. The CPT concentrations were determined by HPLC.

[6] = Particle size by dynamic light scattering (DLS); format: physicochemical; details: conjugates at 10 mg/ml
Procedure: The particle sizes and zeta potential of different conjugates at 10 mg/ml were determined using a dynamic light scattering (DLS) particle size analyzer (Nicomp 380 Zeta Potential/Particle Sizer, Santa Barbara, CA). Following staining with 2% sodium phosphotungstate solution, the conjugate morphologies were observed using transmission electron microscopy (TEM) at an accelerating voltage of 100 kV (JEM 1400 JOEL, Akishima City, Tokyo Prefecture, Japan).

H22 tumor-bearing mice [7] = experiment: Toxicity in the efficacy study (body weight, H&E staining); format: in vivo; details: for H&E histology of liver and spleen: 1 mg/kg CPT i.v., day 12
Procedure: (§2) The tumor-bearing mice were randomly divided into five groups (10 per group). The control group mice were administered saline. […] Body weights were recorded daily. At day 12, four mice of each group were sacrificed by carbon dioxide asphyxiation. Tumors, livers and spleens were collected and fixed with 10% paraformaldehyde for 48 h. These tissues were cut into […] sections and processed for H&E staining. The remaining […] in each group were also sacrificed, and the tumors were collected and weighed.

HepG2 cells [8] = experiment: Apoptosis assay, Annexin V-FITC/PI double staining; format: cell-based; details: 1 μM CPT, 24 h
Procedure: The apoptosis induction effect of conjugates on HepG2 cells was detected by Annexin V-FITC/PI double staining method. […] After 24 h, the cells were trypsinized (without EDTA), washed with PBS (containing 2% BSA), stained by 5 μL of Annexin V-FITC and 5 μL of 100 μg/mL PI, and re-suspended in 500 μL of binding buffer. After 15 min incubation, cells were determined by flow cytometer.

H22 tumor-bearing mice [9] = system: H22 tumor-bearing mice
Procedure: as §1, §2

[10] = system: HepG2 cells (GLUT1-overexpressing); details: 1 μM CPT, flow cytometry
Procedure: HepG2 and L02 cells were seeded into 96-well culture plates at a density of 1.2 × 10^4 cells/well and incubated for 24 h. After the confluency and morphology were checked, 1 μM conjugates (calculated from CPT) were added to each well and co-incubated with the cells for different times (1, 4, and 8 h). […] The D-GLU was a substrate as well as inhibitor of GLUT1. Then, the GPCC conjugate was co-incubated with the cells for 4 h. At the end of the incubation time, the conjugate solutions were withdrawn from the wells, and the cells were washed three times with cold PBS. After fixation with 4% paraformaldehyde, the cells were qualitatively analyzed by fluorescence microscopy (IX71, Olympus, Tokyo, Japan). After trypsinization and re-suspension of the cells in PBS (pH 7.4), the fluorescence intensity was quantitatively analyzed by flow cytometry (BD FACSAria III, Piscataway, NJ).

L02 cells = experiment: MTT cytotoxicity; format: cell-based; details: 24 h
Procedure: The cytotoxicity of different conjugates on HepG2 and L02 cells was determined using 3-(4,5-dimethyl-2-thiazolyl)-2,5-diphenyl-2-H-tetrazolium bromide (MTT) method. The cells were seeded in 96-well culture plates at a density of 5 × 10^3 cells/well. Then the cells were treated with conjugates and free CPT at CPT concentrations ranging from 3 nM to 20 μM at 37 °C for 24 h when 60–70% confluence was reached. After that, the drug solution was replaced with MTT at a concentration of 5 mg/mL, and co-incubated with cells for another 4 h. The supernatant was discarded and adding with 150 μL DMSO to dissolve the MTT-formazan. The absorbance at 492 nm was recorded using a microplate reader.

[11] = 1.5 mg CPT/kg i.v., two-compartment model
[12] = rat, plasma, iv, 1.5 mg/kg, 1.5 mg CPT/kg i.v., two-compartment model

For PAMAM–CPT–Cy7 [PCC], the “fluorescence in tumor sites” value (H22 tumor-bearing mice [1]) was “slight fluorescence”, the “cellular uptake in MCTS” value (HepG2 MCTS) was “obviously stronger cellular uptake than the MPCC conjugate” and the subcellular localization (HepG2 cells [2]) was “accumulated in the nuclei of the HepG2 cells”. For the same molecule, the S phase percentage (HepG2 cells [3]) was 34.7%, the “AUC(0–t)” value [4, 11] was 3594 ± 665 ng·h/mL and the “AUC(0–∞)” value [4, 11] was 4038 ± 505 ng·h/mL. The CL [4, 11] was 6.27 ± 0.767 mL/min/kg, the Cmax [4, 11] was 2530 ± 330 ng/mL and the “MRT(0–t)” value [4, 11] was 5.042 ± 0.225 h. The “MRT(0–∞)” value [4, 11] was 9.566 ± 6.991 h, the “V (apparent volume of distribution)” value [4, 11] was 5.104 ± 3.531 L/kg and the t1/2 [4, 11] was 0.398 ± 0.045 h. The “maximum plasma drug concentration” value [4] was 2.53 µg/mL, the CPT release rate [5] was “slightly increased release rate” and the “particle size (DLS)” value [6] was 17.6 nm. For the same molecule, the “H&E histology of liver and spleen” value (H22 tumor-bearing mice [7]) was “significant hepatotoxicity and spleen toxicity”.
In the case of “Glucose–PEG–PAMAM-s-s–Camptothecin-Cy7 [GPCC]”, the “cellular uptake in MCTS” value (HepG2 MCTS) is reported as “obviously stronger cellular uptake than the MPCC conjugate”, the apoptosis induction effect (HepG2 cells [8]) is reported as “increased obviously” and the subcellular localization (HepG2 cells [2]) is reported as “accumulated in HepG2 nuclei more than the MPCC conjugate”. For the same molecule, the tumor inhibition (H22 tumor-bearing mice [9]; 1 mg/kg CPT i.v. on days 0, 2, 4, 6, 8, 10, versus CPT suspension and other conjugate groups, p < .05) was “significantly better tumor inhibition rates”, the “H&E histology of tumor tissue” value (H22 tumor-bearing mice [9]; 1 mg/kg CPT i.v., day 12) was “widespread necrosis in tumor tissues” and the tumor weight (H22 tumor-bearing mice [9]; 1 mg/kg CPT i.v., end of experiment, p < .05) was “significantly less than that of the MPCC conjugate”. The S phase percentage (HepG2 cells [3]) was 37.15% and the “cellular uptake relative to MPCC” value [10] was “approximately two-fold”.
With `CC[C@@]1(O)C(=O)OCc2c1cc1n(c2=O)Cc2cc3ccccc3nc2-1` [CPT, camptothecin] the apoptosis induction effect (HepG2 cells [8]) was “highest apoptosis induction effect”, the subcellular localization (HepG2 cells [2]) was “hardly observed in the cells” and the S phase percentage (HepG2 cells [3]) was 27.49%. For the same molecule, the AUC(0-inf) [4, 12] was 753 ± 92 ng·h/mL, the AUC(0-t) [4, 12] was 748 ± 92 ng·h/mL and the Tmax [4, 12] was 1.98 min. The clearance [4, 12] was 33.6 mL/min/kg, the half-life [4, 12] was 9.9 ± 8.04 min and the Cmax ([4]; rat, plasma, iv, 1.5 mg/kg, 1.5 mg CPT/kg i.v., two-compartment model, read-out: Cmax) was 917 ± 50 ng/mL. The MRT last ([4]; rat, plasma, iv, 1.5 mg/kg, 1.5 mg CPT/kg i.v., two-compartment model, read-out: MRT(0–t)) was 2.4 ± 0.288 h, the MRT inf ([4]; rat, plasma, iv, 1.5 mg/kg, 1.5 mg CPT/kg i.v., two-compartment model, read-out: MRT(0–∞)) was 2.59 ± 0.291 h and the Vd ([4]; rat, plasma, iv, 1.5 mg/kg, 1.5 mg CPT/kg i.v., two-compartment model, read-out: V (apparent volume of distribution)) was 10.6 ± 1.18 L/kg. For the same molecule, the “maximum plasma drug concentration” value [4] was 0.92 µg/mL, the body weight change (H22 tumor-bearing mice [7]; 1 mg/kg CPT i.v. on days 0, 2, 4, 6, 8, 10) was “smallest increase” and the “H&E histology of liver and spleen” value (H22 tumor-bearing mice [7]) was “significant hepatotoxicity and spleen toxicity”.
For mPEG–PAMAM–CPT–Cy7 [MPCC], the “time of maximum distribution at tumor sites” value (H22 tumor-bearing mice [1]) was 4 h, the cytotoxicity (L02 cells) was “lower than that of PCC” and the S phase percentage (HepG2 cells [3]) was 32.94%. For the same molecule, the “AUC(0–t)” value [4, 11] was 4677 ± 654 ng·h/mL, the “AUC(0–∞)” value [4, 11] was 4895 ± 620 ng·h/mL and the CL [4, 11] was 5.17 ± 0.617 mL/min/kg. For the same molecule, the Cmax [4, 11] was 3807 ± 144 ng/mL, the “MRT(0–t)” value [4, 11] was 4.341 ± 0.9 h and the “MRT(0–∞)” value [4, 11] was 5.81 ± 1.141 h. For the same molecule, the “V (apparent volume of distribution)” value [4, 11] was 3.207 ± 1.638 L/kg, the t1/2 [4, 11] was 0.258 ± 0.027 h and the “maximum plasma drug concentration” value [4] was 3.81 µg/mL. For the same molecule, the “particle size (DLS)” value [6] was 19.6 nm.
